This series relates to Salmonella typhimurium. Nature of the series: Toxicity in Salmonella Typhimurium TA1538 assessed as induction of mutagenicity using cytochrome P450 chemical model after 44 hrs by Ames test. Format: organism-based. Particulars: salmonella enterica subsp. enterica serovar typhimurium.

`CC(=O)Nc1ccc2c(c1)Cc1ccccc1-2` [2-ACETYLAMINOFLUORENE]: the Activity result is “Dose-dependent effect”.
